Source: patent US20250326769A1, “HETEROAROMATIC MACROCYCLIC ETHER CHEMOTHERAPEUTIC AGENTS” (Nuvalent, Inc., priority 2022, published 2025)

Columns and labels:
Ba/F3 ETV6-TRKB = Ba/F3 ETV6-TRKB (Homo sapiens, UniProt Q16620); experiment: Ba/F3 cell proliferation assay, ETV6-TRKB; format: cell-based; settings: Ba/F3 stable cells, 72 hours, CellTiter-Glo; read-out: ETV6-TRKB IC50
In short: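 Growth inhibition after 72 h compound exposure (3-fold series) was measured by CellTiter-Glo in IL-3-independent Ba/F3 cells stably expressing ETV6-TRKB. A four-parameter logistic fit of percent inhibition versus concentration gave IC50.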

ALK I1171N/D1203N = ALK I1171N/D1203N (Homo sapiens (Human), UniProt Q9UM73, D1203N/I1171N); experiment: Biochemical kinase assay, ALK I1171N/D1203N; settings: apparent inhibitory constant, kinase domain, Morrison equation; read-out: ALK-I1171N-D1203N Ki^app
Chain of ALK I1171N/D1203N (Q9UM73 1116-1392 I1171N/D1203N): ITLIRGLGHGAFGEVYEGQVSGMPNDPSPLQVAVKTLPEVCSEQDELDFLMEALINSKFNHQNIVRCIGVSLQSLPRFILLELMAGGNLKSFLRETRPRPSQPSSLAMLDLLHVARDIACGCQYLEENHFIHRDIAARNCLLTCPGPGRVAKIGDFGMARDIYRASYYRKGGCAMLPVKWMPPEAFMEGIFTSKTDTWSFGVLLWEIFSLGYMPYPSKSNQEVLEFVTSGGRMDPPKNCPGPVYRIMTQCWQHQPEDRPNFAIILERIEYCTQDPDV
Experimental: (§1) First, 250 nL of compound dissolved in DMSO (100-fold of the desired concentration) was dispensed into a 384-well plate. A 12.5 μL substrate solution containing ATP (2 mM) and fluorogenic phosphorylation substrate AQT0101 ([…] for ALK and ROS, AssayQuant) or AQT0104 (26 μM for TRKB, AssayQuant) in buffer (50 mM HEPES pH 7.5, […], 0.5 mM EGTA, 10 mM MgCl2) was added and mixed thoroughly. Then, a 12.5 μL kinase solution containing ALK (1.5 nM, Carna, 08-518), ALK I1171N/D1203N (4 nM, SignalChem, custom-made), ROS1 (0.6 nM, Carma, 08-163), ROS1-G2032R (0.5 nM, SignalChem, R14-121BG), or TRKB-wt (1.5 nM, SignalChem, N17-11G) kinase domains in buffer ([…] pH 7.5, 0.01% Brij-[…], 0.4 mg/mL BSA, 0.5 mM EGTA, and 10 mM MgCl2) was added and mixed thoroughly. The plate was sealed and read by SpectraMax Paradigm at λ=485 nm every 2 minutes for 120 minutes at 30° C. Initial rates of reaction (v) were calculated from the change in fluorescence intensity over time during the initial, linear portion of the reaction. Finally, apparent inhibitory constants (Ki^app) were determined from regression of v and I (inhibitor concentration) to Morrison Equation (E=enzyme concentration): […]
(§2) Compound potency can be interpreted by binning Ki^app values against the targets: bin A for high potency, Ki^app<50 nM; bin B for medium potency, 50 nM≤Ki^app<500 nM; and bin C for low potency, Ki^app≥500 nM. […] “nd” means not determined.

TRKB-wt = TRKB-wt (Homo sapiens (Human), UniProt Q16620); experiment: Biochemical kinase assay, TRKB-wt; settings: apparent inhibitory constant, kinase domain, Morrison equation; read-out: TRKB-wt Ki^app
Chain of TRKB-wt (Q16620 538-807): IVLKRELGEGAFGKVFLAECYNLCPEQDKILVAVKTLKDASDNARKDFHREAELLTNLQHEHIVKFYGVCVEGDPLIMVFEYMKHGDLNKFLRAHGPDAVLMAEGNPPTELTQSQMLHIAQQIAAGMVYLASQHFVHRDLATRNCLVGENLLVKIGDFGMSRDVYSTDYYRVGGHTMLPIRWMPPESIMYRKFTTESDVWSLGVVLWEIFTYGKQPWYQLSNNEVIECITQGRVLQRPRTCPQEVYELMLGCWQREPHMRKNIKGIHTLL
Experimental: as §1, §2

[1] = target: Ba/F3 EML4-ALK v1 I1171N/D1203N (Homo sapiens (Human), UniProt Q9HC35+Q9UM73, D1203N/I1171N); experiment: Ba/F3 cell proliferation assay, EML4-ALK v1 I1171N/D1203N; format: cell-based; settings: for IC50: Ba/F3 stable cells, 72 hours, CellTiter-Glo
Chain of Ba/F3 EML4-ALK v1 I1171N/D1203N (Q9UM73 other isoform, or with tags, fused parts or gaps I1171N/D1203N): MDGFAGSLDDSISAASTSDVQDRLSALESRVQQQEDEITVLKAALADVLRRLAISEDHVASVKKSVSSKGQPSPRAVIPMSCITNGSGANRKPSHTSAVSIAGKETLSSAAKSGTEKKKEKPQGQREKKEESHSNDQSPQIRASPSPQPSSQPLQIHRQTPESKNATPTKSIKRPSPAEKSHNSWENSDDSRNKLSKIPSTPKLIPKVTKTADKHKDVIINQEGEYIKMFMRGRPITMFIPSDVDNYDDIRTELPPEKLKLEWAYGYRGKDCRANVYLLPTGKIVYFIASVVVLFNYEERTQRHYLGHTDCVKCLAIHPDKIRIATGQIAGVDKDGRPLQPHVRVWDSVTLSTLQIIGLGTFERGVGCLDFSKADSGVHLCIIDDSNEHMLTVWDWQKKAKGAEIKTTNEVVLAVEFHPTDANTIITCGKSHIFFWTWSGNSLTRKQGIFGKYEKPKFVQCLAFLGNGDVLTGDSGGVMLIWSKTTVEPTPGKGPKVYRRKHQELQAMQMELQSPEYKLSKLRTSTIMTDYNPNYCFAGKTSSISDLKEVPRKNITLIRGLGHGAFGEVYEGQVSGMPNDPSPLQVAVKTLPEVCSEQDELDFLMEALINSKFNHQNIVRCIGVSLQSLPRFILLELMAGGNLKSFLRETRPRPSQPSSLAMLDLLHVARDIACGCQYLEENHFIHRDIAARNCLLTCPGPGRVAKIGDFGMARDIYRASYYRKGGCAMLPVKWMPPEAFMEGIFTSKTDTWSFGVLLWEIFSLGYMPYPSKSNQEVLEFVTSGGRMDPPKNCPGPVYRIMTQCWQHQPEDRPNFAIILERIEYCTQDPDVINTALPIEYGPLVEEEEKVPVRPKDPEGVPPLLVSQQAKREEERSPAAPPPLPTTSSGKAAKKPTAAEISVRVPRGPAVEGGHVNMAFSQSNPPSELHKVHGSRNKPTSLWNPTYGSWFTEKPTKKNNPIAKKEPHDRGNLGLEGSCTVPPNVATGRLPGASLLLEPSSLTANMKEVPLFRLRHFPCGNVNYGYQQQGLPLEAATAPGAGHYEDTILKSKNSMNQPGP
In short: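 Viability read by CellTiter-Glo luminescence after 72 h exposure to a 3-fold compound dilution series, with IC50 from four-parameter logistic regression. Cells were Ba/F3 rendered IL-3-independent through retroviral expression of EML4-ALK v1 I1171N/D1203N, puromycin-selected.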

[2] = TRKB selectivity, ratio of Ba/F3 IC50 values

Chain of Ba/F3 ETV6-TRKB (Q16620 32-822 limits assumed, change not shown): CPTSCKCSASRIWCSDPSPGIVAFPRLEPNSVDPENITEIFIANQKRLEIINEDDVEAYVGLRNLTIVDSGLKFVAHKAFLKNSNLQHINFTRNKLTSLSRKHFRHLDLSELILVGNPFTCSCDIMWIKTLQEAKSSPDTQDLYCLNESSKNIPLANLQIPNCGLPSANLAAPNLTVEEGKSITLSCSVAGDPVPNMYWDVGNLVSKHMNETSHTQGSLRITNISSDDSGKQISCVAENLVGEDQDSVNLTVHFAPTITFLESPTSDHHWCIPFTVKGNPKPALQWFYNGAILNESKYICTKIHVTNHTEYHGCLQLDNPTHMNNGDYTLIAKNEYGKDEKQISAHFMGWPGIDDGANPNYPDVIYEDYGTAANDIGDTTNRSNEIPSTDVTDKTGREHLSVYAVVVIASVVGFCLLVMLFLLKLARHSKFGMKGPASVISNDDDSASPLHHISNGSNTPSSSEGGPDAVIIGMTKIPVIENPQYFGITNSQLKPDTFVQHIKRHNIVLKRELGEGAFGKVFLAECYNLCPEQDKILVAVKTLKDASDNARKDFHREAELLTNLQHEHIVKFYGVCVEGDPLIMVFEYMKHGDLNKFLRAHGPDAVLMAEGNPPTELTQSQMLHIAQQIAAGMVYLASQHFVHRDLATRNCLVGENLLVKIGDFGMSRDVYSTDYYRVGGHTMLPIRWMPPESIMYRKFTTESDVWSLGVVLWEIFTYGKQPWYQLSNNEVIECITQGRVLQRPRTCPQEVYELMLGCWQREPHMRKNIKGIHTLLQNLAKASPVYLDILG

SMILES | IC50 (Ba/F3 ETV6-TRKB) | Ki (ALK I1171N/D1203N) | Ki (TRKB-wt) | IC50 [1] | ETV6-TRKB / EML4-ALK v1 I1171N/D1203N [1, 2] | Selectivity for Ba/F3 EML4-ALK v1 I1171N-D1203N IC50 over Ba/F3 ETV6-TRKB IC50 ([1]; TRKB selectivity, ratio of Ba/F3 IC50 values, Table 6 bins)
C[C@H]1Oc2cc(cnc2N)-c2c(c(C(=O)N3CCC(F)(F)C3)nn2CC2CC2)Cc2cn(C)nc2-c2ccc(F)cc21 [Example 12, {(R)-22-amino-3-(cyclopropylmethyl)-16-fluoro-10-methyl-19-methyl-20-oxa-3,4,10,11,23-pentaazapentacyclo[19.3.1.0^2,^6.0^8,^12.013,18]pentacosa-1(24),2(6),4,8,11,13,15,17,21(25),22-decaen-5-yl}(3,3-difluoro-1-pyrrolidinyl)methanone] | > 500 nM | < 50 nM | ≥ 500 nM | 50 to 500 nM | C (bin C for moderate selectivity, ratio≥1 but<10) | 
C[C@H]1Oc2cc(cnc2N)-c2c(c(C(=O)N3CC(F)(F)C3)nn2CC2CC2)Cc2cn(C)nc2-c2ccc(F)cc21 [Example 13, {(R)-22-amino-3-(cyclopropylmethyl)-16-fluoro-10-methyl-19-methyl-20-oxa-3,4,10,11,23-pentaazapentacyclo[19.3.1.0^2,^6.0^8,^12.0^13,^18]pentacosa-1(24),2(6),4,8,11,13,15, 17,21(25),22-decaen-5-yl}(3,3-difluoro-1-azetidinyl)methanone] | > 500 nM | < 50 nM | 50 to 500 nM | 50 to 500 nM | C (bin C for moderate selectivity, ratio≥1 but<10) | 
CC(=O)c1nn(CC2CC2)c2c1Cc1cn(C)nc1-c1ccc(F)cc1[C@@H](C)Oc1cc-2cnc1N [Example 16, 1-[(19R)-22-amino-3-(cyclopropylmethyl)-16-fluoro-10,19-dimethyl-20-oxa-3.4.10,11,23-pentaazapentacyclo[19.3.1.0^2,6.0^8,12.0^13,18]pentacosa-1(24),2(6),4,8,11.13,15,17,21(25),22-decaen-5-yl]ethan-1-one] | > 500 nM | 50 to 500 nM | ≥ 500 nM | 50 to 500 nM | C (bin C for moderate selectivity, ratio≥1 but<10) | 
C[C@H]1Oc2cc(cnc2N)-c2c(c([S+](C)[O-])nn2CC2CC2)Cc2cn(C)nc2-c2ccc(F)cc21 (stereo partly drawn) [Example 17, (R)-3-(cyclopropylmethyl)-16-fluoro-10-methyl-19-methyl-5-(methylsulfinyl)-20-oxa-3,4,10,11,23-pentaazapentacyclo[19.3.1.0^2,^6.0^8,^12.0^13,^18]pentacosa-1(24),2(6),4,8,11,13,15,17,21(25),22-decaen-22-ylamine] | > 500 nM | < 50 nM | 50 to 500 nM | 50 to 500 nM | C (bin C for moderate selectivity, ratio≥1 but<10) | 
Cc1cc2n(n1)-c1ccc(F)cc1[C@@H](C)Oc1cc(cnc1N)-c1c(C#N)nn(C)c1C2=O [Example 18, (R)-22-amino-16-fluoro-5-methyl-10,19-dimethyl-7-oxo-20-oxa-4,5,11,12,23-pentaazapentacyclo[19.3.1.0^2,^6.0^8,^12.0^13,^18]pentacosa-1(24),2(6),3,8,10,13,15,17,21(25),22-decaene-3-carbonitrile] | > 500 nM | < 50 nM | 50 to 500 nM | 50 to 500 nM | C (bin C for moderate selectivity, ratio≥1 but<10) | CC (bin CC for the selectivity with the ratio≥5 but<10)
Cc1cc2n(n1)-c1ccc(F)cc1[C@@H](C)Oc1cc(cnc1N)-c1c(nn(C)c1C#N)C2=O [Example 19, (R)-22-amino-16-fluoro-4-methyl-10,19-dimethyl-7-oxo-20-oxa-4,5,11,12,23-pentaazapentacyclo[19.3.1.0^2,^6.0^8,^12.0^13,^18]pentacosa-1(24),2,5,8, 10,13,15,17,21(25),22-decaene-3-carbonitrile] | 50 to 500 nM | < 50 nM | < 50 nM | 0.1 to 50 nM | B (bin B for high selectivity, ratio≥10-fold but<30) | 
C[C@H]1Oc2cc(cnc2N)-c2c(c(C(N)=O)nn2C2CCC2)Cc2cn(C)nc2-c2ccc(F)cc21 [Example 30, (R)-22-amino-3-cyclobutyl-16-fluoro-10-methyl-19-methyl-20-oxa-3,4,10,11,23-pentaazapentacyclo[19.3.1.0^2,^6.0^8,^12.0^13,^18] pentacosa-1(24),2(6),4,8,11,13,15,17,21(25),22-decaene-5-carboxamide] | > 500 nM | < 50 nM | 50 to 500 nM | 50 to 500 nM | B (bin B for high selectivity, ratio≥10-fold but<30) | 
CC1CCCN1C(=O)c1nn(CC2CC2)c2c1Cc1cn(C)nc1-c1ccc(F)cc1[C@@H](C)Oc1cc-2cnc1N (stereo partly drawn) [Example 31, {(R)-22-amino-3-(cyclopropylmethyl)-16-fluoro-10-methyl-19-methyl-20-oxa-3,4,10,11,23-pentaazapentacyclo[19.3.1.0^2,^6.0^8,^12.0^13,^18]pentacosa-1(24),2(6),4,8,11, 13,15,17,21(25),22-decaen-5-yl}(2-methyl-1-pyrrolidinyl)methanone] | > 500 nM | < 50 nM | ≥ 500 nM | 0.1 to 50 nM | A (bin A for very high selectivity, ratio≥30-fold) | 
C[C@H]1Oc2cc(cnc2N)-c2c(c(C(=O)N(C)C)nn2CC2CCC2)Cc2cn(C)nc2-c2ccc(F)cc21 [Example 33, (19R)-22-amino-3-(cyclobutylmcthyl)-16-fluoro-N,N,10,19-tetramethyl-20-oxa-3,4,10,11,23-pentaazapentacyclo[19.3.1.0^2,^6.0^8,^12.0^13,^18]pentacosa-1(24),2(6),4,8,11,13,15,17,21(25),22-decaene-5-carboxamide] | > 500 nM | < 50 nM | ≥ 500 nM | 50 to 500 nM | A (bin A for very high selectivity, ratio≥30-fold) | 
CON(C)C(=O)c1nn(CC2CC2)c2c1Cc1cn(C)nc1-c1ccc(F)cc1[C@@H](C)Oc1cc-2cnc1N [Example 34, N-methoxy-N-methyl-(R)-22-amino-3-(cyclopropylmethyl)-16-fluoro-10-methyl-19-methyl-20-oxa-3,4,10,11,23-pentaazapentacyclo[19.3.1.0^2,^6.0^8,^12.0^13,^18]pentacosa-1(24),2(6),4,8,11,13,15,17,21(25),22-decaene-5-carboxamide] | > 500 nM | < 50 nM | 50 to 500 nM | 0.1 to 50 nM | B (bin B for high selectivity, ratio≥10-fold but<30) | 
C[C@H]1Oc2cc(cnc2N)-c2c(c(C(=O)N(C)CC(F)(F)F)nn2CC2CC2)Cc2cn(C)nc2-c2ccc(F)cc21 [Example 36, (19R)-22-amino-3-(cyclopropylmethyl)-16-fluoro-N,10,19-trimethyl-N-(2,2,2-trifluoroethyl)-20-oxa-3,4,10,11,23-pentaazapentacyclo[19.3.1.0^2,^6.0^8,^12.0^13,^18]pentacosa-1(24),2(6),4,8,11,13,15,17,21(25),22-decaene-5-carboxamide] | > 500 nM | < 50 nM | ≥ 500 nM | 50 to 500 nM | A (bin A for very high selectivity, ratio≥30-fold) | 
